Laboratory results taken from patent US20140093884A1, “Process for Identifying Novel Anti-Inflammatory Molecules with Reduced Direct Transrepression of Genes Induced by Glucocorticoids” (UNIVERSITE DE STRASBOURG, priority 2011, published 2014).

Biological target: T1, GR binding to IR nGREs (Homo sapiens, UniProt P04150)
T1 construct: GR-expressing cells are in vitro cultured cells, preferably human lung epithelial carcinoma cells A549; endogenous in cells; host or cells: A549 (CCL-185, ATCC)
T1 sequence (P04150 1-777): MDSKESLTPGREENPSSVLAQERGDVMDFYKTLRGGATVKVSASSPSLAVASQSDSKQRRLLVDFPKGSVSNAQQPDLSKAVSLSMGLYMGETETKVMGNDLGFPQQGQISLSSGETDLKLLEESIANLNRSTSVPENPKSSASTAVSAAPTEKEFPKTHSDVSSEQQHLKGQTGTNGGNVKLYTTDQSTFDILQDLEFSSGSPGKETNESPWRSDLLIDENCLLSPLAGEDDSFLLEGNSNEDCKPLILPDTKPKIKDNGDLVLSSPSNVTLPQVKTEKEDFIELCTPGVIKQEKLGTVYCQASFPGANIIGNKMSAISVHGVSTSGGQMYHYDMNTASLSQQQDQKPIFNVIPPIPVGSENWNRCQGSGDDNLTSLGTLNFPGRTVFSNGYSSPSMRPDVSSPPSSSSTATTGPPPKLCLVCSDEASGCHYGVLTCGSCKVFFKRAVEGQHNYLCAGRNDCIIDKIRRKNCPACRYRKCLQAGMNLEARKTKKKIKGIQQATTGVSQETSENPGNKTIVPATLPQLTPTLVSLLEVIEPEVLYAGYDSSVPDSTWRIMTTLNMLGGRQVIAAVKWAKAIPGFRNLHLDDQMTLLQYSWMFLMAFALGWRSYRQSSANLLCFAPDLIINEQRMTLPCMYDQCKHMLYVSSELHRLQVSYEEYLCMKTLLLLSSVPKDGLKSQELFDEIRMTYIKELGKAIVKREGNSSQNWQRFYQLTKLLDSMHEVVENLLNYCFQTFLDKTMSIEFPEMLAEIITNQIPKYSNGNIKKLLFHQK
Assay: ChIP assay of GR binding to IR0 to IR5 nGRE reporter plasmids in A549 cells
Format: cell-based
Conditions: upon FA addition
Protocol: For ChIP assays to test GR and cofactor binding to the nGRE, +GRE or NFκB region of various luciferase reporter plasmids, ˜60% confluent A549 cells in 100 mm TC dish were transfected with 2 μg of respective plasmids using fugene 6 reagent (Roche) and maintained in charcoal treated FCS containing medium. 44 hours post-transfection, 500 nM FA or Dex or RU24858 and/or 5 μM RU486, 5 ng/ml IL-1β (final conc.) was added to the medium for 2 hours, followed by formaldehyde treatment and processing as described above.
To investigate whether the 1 bp spacer between the inverted repeated motifs of TSLP IR1 nGRE was critical for its repressing function, pGL3-based luciferase plasmids containing the VDRE and TSLP nGRE motifs spaced by 0 to 5 bases (IR0 to IR5 nGREs) were transfected into A549 cells.

SMILES: CC1(C)O[C@@H]2C[C@H]3[C@@H]4C[C@H](F)C5=CC(=O)C=C[C@]5(C)[C@@]4(F)[C@@H](O)C[C@]3(C)[C@]2(C(=O)CO)O1 [FA, fluocinolone acetonide]
- GR binding to IR0 nGRE (ChIP): less efficient
- GR binding to IR1 and IR2 nGREs (ChIP): similarly bound
- GR binding to IR3, IR4 and IR5 nGREs (ChIP): not detectable
